Measured values published in patent US12661405B2, “Protected HDAC (histone deacetylase) inhibitors” (LIGHTOX LIMITED, priority 2021, dated 2026).
Where two headings read alike, the source gives them in different places.

Experiments:
HaCaT keratinocytes = experiment: Fluorescein diacetate cellular viability assay; assay type: cell-based; details: Homo sapiens, light or radiation study, read after 24 h
Description: A fluorescein diacetate cellular viability assay measuring the viability of HaCaT keratinocytes in response to treatment with compound 92 without irradiation (no light) and when irradiated (Light) was carried out as follows:
HaCaT keratinocyte cells were seeded in two 96 well plates and incubated for 24 h at 37° C. 5% CO2. The incubating media was removed and compound 92 was added at a range of concentrations, along with a dimethyl sulfoxide (DMSO) control, before the cells were incubated for one hour at 37° C. 5% CO2, whereupon one plate was irradiated at 405 nm for 5 min (72 mW/cm^2). Both plates were then incubated at 37° C. 5% CO2 for 24 h. The media was removed, and cells were washed with 1× phosphate buffered saline (PBS), then fluorescein diacetate (FDA) was added, and the cells were incubated at RT, in the dark, for 10 min. The fluorescein diacetate stain was then removed, and cells were washed with 1× phosphate buffered saline. The plates were read at 485/520 nm to determine cell viability at differing treatment concentrations of compound 92 with and without light exposure.

HDAC enzymes = experiment: Immunofluorescence imaging with anti-acetyl-H3 primary antibody (acetylated H3 histones); assay type: cell-based; details: HaCaT keratinocytes, compound at 5 μM
Description: HaCaT or SCC-4 cells were seeded at 50,000 cells per well in sterile coverslip containing 6-well plates. The next day, cells were treated with the compound of interest for 30 minutes before “Light” treated cells were irradiated. The following day, cells were then fixed using 4% PFA, permeabilised using Triton X-100/Tween 20, blocked in BSA/goat serum (dependent on the antibodies) and stained with primary then secondary antibodies before coverslips were mounted on slides and imaged on a Zeiss LSCM 880.
Immunofluorescence imaging of HaCaT keratinocytes treated with compound 92 (5 μM) and ethanol (EtOH), and co-treated with an anti-acetyl-H3 primary antibody that detects the presence of acetylated H3 histones was carried out as follows:
[…] Cells were washed in phosphate buffered saline then fixed in 4% PFA. Cells were washed again with phosphate buffered saline before blocking and permeabilization with 0.3% triton 100-X/5% goat serum in phosphate buffered saline for 60 min. Cells were then washed with phosphate buffered saline and anti-acetyl-histone 3 antibody was added and incubated overnight at 4° C. Second antibody (Alexa-594 anti-rabbit) was added for 45 min before cells were washed again and mounted for imaging.
This delayed behaviour is indicative of an initial lag phase as compound 92 is enzymatically metabolised to the active form.

Acetylated H3 build-up (nuclear ring phenotype) after one hour (HDAC enzymes; one hour): characteristic nuclear ring phenotype | Acetylated H3 build-up (nuclear ring phenotype) after ten minutes (HDAC enzymes; ten minutes): limited activity
Compound: COC(=O)/C=C/c1ccc(C#Cc2cnc(N3CCN(C(=O)CCCCCCC(=O)NOC(C)=O)CC3)s2)cn1 [compound 92, Methyl (2E)-3-(5-{2-[2-(4-{7-[(acetyloxy)carbamoyl]heptanoyl}piperazin-1-yl)-1,3-thiazol-5-yl]ethynyl}pyridin-2-yl)prop-2-enoate]
IC50 (HaCaT keratinocytes; 1 h treatment, irradiated at 405 nm for 5 min (72 mW/cm^2), read-out: IC50 cell viability, light activation): 0.69 µM | IC50 (HaCaT keratinocytes; no irradiation, read-out: IC50 cell viability, without light activation): 5.5 µM
